Measurements as given in patent publication US20230159510A1, “NOVEL PRMT5 INHIBITORS” (AMGEN INC., priority 2020, published 2023).
Like-named read-outs stand apart in the source and are kept apart here.

Columns and labels:
[1] = test system: HCT116 MTAP null cells; experiment: HCT116 proliferation assay, MTAP null cells (CellTiter-Glo, 6 days); type: cell-based; details: read-out: Protif_ HCT116-MTAP null IC50
Outline: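 RPMI 1640/10% FBS; overnight attachment at 37° C, 5% CO2; 8–9-pt 1:3 titration, top 1 or 10 µM; DMSO ctrl; luminescence readout.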

[2] = biological target: PRMT5/MEP50 (Homo sapiens, UniProt O14744); experiment: MTase-Glo methyl transferase assay, Method B (FL-Histone H2A, 1 µM MTA, 1 h pre-incubation); type: biochemical; design: purchased Reaction Biology Corp RD-11-292; details: read-out: PRMT5 MTase Glo Ki (nM, Meth. B)
PRMT5/MEP50, sequence (O14744 2-637 limits assumed): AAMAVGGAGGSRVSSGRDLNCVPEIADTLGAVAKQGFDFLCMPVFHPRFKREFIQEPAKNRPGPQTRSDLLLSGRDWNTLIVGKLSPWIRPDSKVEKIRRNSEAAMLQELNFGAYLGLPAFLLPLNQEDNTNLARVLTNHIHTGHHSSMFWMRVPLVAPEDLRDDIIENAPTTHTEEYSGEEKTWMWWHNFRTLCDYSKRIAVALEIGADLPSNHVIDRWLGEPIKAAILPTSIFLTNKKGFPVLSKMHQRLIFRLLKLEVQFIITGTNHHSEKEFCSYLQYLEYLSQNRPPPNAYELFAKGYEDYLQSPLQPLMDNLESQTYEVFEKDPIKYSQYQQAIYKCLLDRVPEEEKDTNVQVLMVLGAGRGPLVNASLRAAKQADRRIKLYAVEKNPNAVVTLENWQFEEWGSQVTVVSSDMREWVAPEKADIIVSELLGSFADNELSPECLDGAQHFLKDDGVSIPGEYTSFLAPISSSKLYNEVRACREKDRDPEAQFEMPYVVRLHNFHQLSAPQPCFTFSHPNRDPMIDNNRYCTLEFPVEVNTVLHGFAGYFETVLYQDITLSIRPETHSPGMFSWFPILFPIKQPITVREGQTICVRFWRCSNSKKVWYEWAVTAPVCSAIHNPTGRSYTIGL
PRMT5/MEP50, sequence (Q9BQA1 2-342 partner limits assumed): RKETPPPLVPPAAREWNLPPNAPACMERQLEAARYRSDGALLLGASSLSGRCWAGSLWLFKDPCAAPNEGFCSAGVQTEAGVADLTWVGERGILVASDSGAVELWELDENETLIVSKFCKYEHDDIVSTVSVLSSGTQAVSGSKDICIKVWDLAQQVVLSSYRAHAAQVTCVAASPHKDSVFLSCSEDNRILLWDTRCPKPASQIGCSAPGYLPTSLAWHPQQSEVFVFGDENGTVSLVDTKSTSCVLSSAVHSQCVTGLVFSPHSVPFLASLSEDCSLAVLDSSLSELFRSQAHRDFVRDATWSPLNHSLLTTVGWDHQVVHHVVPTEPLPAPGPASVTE
Method: Method B: The PRMT5 inhibitory activity of test compounds was determined using the MTase-Glo™ assay (Promega), which monitors the product (S-adenosyl homocysteine or SAH) of methyltransferase reactions. The PRMT5 MTase-Glo assay was conducted in a 384-well white ProxiPlate (PerkinElmer) in a total volume of 16 µL. The PRMT5 enzymatic reaction (in 8 µL) contained 4 nM PRMT5/MEP50 (Reaction Biology Corp, catalog no.: RD-11-292), 5 µM S-adenosyl methionine (SAM, Promega), 2.5 µM FL-Histone H2A (BPS Bioscience, catalog no.: 52021), 1 µM 5′-methylthioadenosine (MTA, Sigma) and ½ log serially diluted compounds in a reaction buffer of 50 mM Tris (pH 8.0), 50 mM NaCl, 0.01% Tween 20, 0.01% BSA, and 1 mM TCEP. Test compounds were pre-incubated with PRMT5/MEP50, SAM, and MTA for 1 hour before addition of FL-Histone H2A to initiate the PRMT5 reaction. The reaction was allowed to proceed for 20 hours at room temperature and was then terminated by addition of 1 µL of 9X MTase-Glo™ Reagent (Promega). After a 30-minute incubation at room temperature, 8 µL of MTase-Glo™ Detection Solution (Promega) was added and the plate was incubated at room temperature for an additional 30 minutes. The light signal corresponding to the amount of SAH produced by the PRMT5 reaction was subsequently measured using an Envision multimode reader (PerkinElmer). IC50 and KI values were obtained by analyzing dose-response curves using GraphPad Prism®.

IC50 ([1]; HCT116-MTAP null, 144 h) [nM] | Ki [2] [nM] | IC50 [1] [nM] | SMILES
33 | 4.58 |  | COc1cccc2c1OCCC2N(Cc1ccc(C(F)(F)F)cn1)C(=O)c1ccc2nc(N)c(C)cc2c1 (centres unmarked) [Example 630, 2-amino-N-(8-methoxychroman-4-yl)-3-methyl-N-[[5-(trifluoromethyl)-2-pyridyl]methyl] quinoline-6-carboxamide]
28 | 7.14 |  | Cc1cc2cc(C(=O)N(Cc3ccc(C(F)(F)F)cn3)C3CCCc4c[nH]nc43)ccc2nc1N (centres unmarked) [Example 631, 2-amino-3-methyl-N-(4,5,6,7-tetrahydro-2H-indazol-7-yl)-N-[[5-(trifluoromethyl)-2-pyridyl]methyl] quinoline-6-carboxamide]
340 | 5.3 |  | Cc1cc2cc(C(=O)N(Cc3ccc(C(F)(F)F)cn3)C(C)C3CCCO3)ccc2nc1N (centres unmarked) [Example 632, 2-amino-3-methyl-N-(1-tetrahydrofuran-2-ylethyl)-N-[[5-(trifluoromethyl)-2-pyridyl]methyl] quinoline-6-carboxamide]
330 | 4.8 |  | Cc1cc2cc(C(=O)N(Cc3ccc(C(F)(F)F)cn3)C3CCCC4OCCC43)ccc2nc1N (centres unmarked) [Example 633, N-(2,3,3a,4,5,6,7,7a-octahydrobenzofuran-4-yl)-2-amino-3-methyl-N-[[5-(trifluoromethyl)-2-pyridyl]methyl] quinoline-6-carboxamide]
930 | 6.84 |  | Cc1cc2cc(C(=O)N(Cc3ccc(C(F)(F)F)cn3)C(C)CC(C)C)ccc2nc1N (centres unmarked) [Example 634, 2-amino-N-(1,3-dimethylbutyl)-3-methyl-N-[[5-(trifluoromethyl)-2-pyridyl]methyl] quinoline-6-carboxamide]
 | 1.29 | 18 | Cc1cc2cc(C(=O)N(Cc3ccc(C(F)(F)F)cn3)Cc3ccnc4[nH]ccc34)cnc2nc1N [Example 635, 7-amino-6-methyl-N-(1H-pyrrolo[2,3-b]pyridin-4-ylmethyl)-N-[[5-(trifluoromethyl)-2-pyridyl]methyl]-1,8-naphthyridine-3-carboxamide]
890 | 2.3 |  | Cc1cc2cc(C(=O)N(Cc3ccc4c(c3)CNC4=O)Cc3ccc(C(F)(F)F)cn3)ccc2nc1N [Example 636, 2-amino-3-methyl-N-[(1-oxoisoindolin-5-yl)methyl]-N-[[5-(trifluoromethyl)-2-pyridyl]methyl] quinoline-6-carboxamide]
> 1000 | 5.2 |  | Cc1cc2cc(C(=O)N(Cc3ccc(C(N)=O)nc3)Cc3ccc(C(F)(F)F)cn3)ccc2nc1N [Example 637, 2-amino-N-[(6-carbamoyl-3-pyridyl)methyl]-3-methyl-N-[[5-(trifluoromethyl)-2-pyridyl]methyl] quinoline-6-carboxamide]
200 | 1.9 |  | CNC(=O)c1ccc(CN(Cc2ccc(C(F)(F)F)cn2)C(=O)c2ccc3nc(N)c(C)cc3c2)cc1 [Example 638, 2-amino-3-methyl-N-[[4-(methylcarbamoyl)phenyl]methyl]-N-[[5-(trifluoromethyl)-2-pyridyl]methyl] quinoline-6-carboxamide]
580 | 12.2 |  | Cc1cc2cc(C(=O)N(Cc3cc(Cl)ccn3)CC(C)C)ccc2nc1N [Example 639, 2-amino-N-[(4-chloro-2-pyridyl)methyl]-N-isobutyl-3-methylquinoline-6-carboxamide]
730 | 14.1 |  | Cc1cc2cc(C(=O)N(Cc3ncccc3Br)CC(C)C)ccc2nc1N [Example 640, 2-amino-N-[(3-bromo-2-pyridyl)methyl] -N-isobutyl-3-methylquinoline-6-carboxamide]
920 | 13.1 |  | Cc1cc2cc(C(=O)N(Cc3ccc(C(F)(F)F)cn3)C(C)C(C)O)ccc2nc1N (centres unmarked) [Example 641, 2-amino-N-(2-hydroxy-1-methylpropyl)-3-methyl-N-[[5-(trifluoromethyl)-2-pyridyl]methyl] quinoline-6-carboxamide]
86 | 2.55 |  | Cc1cc2cc(C(=O)N(Cc3ccc(C(F)(F)F)cn3)C(C)C(C)C)ccc2nc1N (centres unmarked) [Example 642, 2-amino-N-(1,2-dimethylpropyl)-3-methyl-N-[[5-(trifluoromethyl)-2-pyridyl]methyl] quinoline-6-carboxamide]
> 1000 | 5.93 |  | Cc1cc2cc(C(=O)N(Cc3ccc(N4CCCC4=O)cc3)Cc3ccc(C(F)(F)F)cn3)ccc2nc1N [Example 645, 2-amino-3-methyl-N-[[4-(2-oxopyrrolidin-1-yl)phenyl]methyl] -N-[[5-(trifluoromethyl)-2-pyridyl]methyl] quinoline-6-carboxamide]
850 | 6.83 |  | Cc1cc2cc(C(=O)N(Cc3ccc(N4CCCC4)cc3)Cc3ccc(C(F)(F)F)cn3)ccc2nc1N [Example 646, 2-amino-3-methyl-N-[(4-pyrrolidin-1-ylphenyl)methyl]-N-[[5-(trifluoromethyl)-2-pyridyl]methyl] quinoline-6-carboxamide]
320 | 4.11 |  | Cc1cc2cc(C(=O)N(Cc3ccc(-c4cc[nH]n4)cc3)Cc3ccc(C(F)(F)F)cn3)ccc2nc1N [Example 647, 2-amino-3-methyl-N-[[4-(IH-pyrazol-3-yl)phenyl]methyl]-N-[[5-(trifluoromethyl)-2-pyridyl]methyl] quinoline-6-carboxamide]
180 | 1.68 |  | Cc1cc2cc(C(=O)N(Cc3cccc(-n4ccnc4)c3)Cc3ccc(C(F)(F)F)cn3)ccc2nc1N [Example 648, 2-amino-N-[(3-imidazol-1-ylphenyl)methyl]-3-methyl-N-[[5-(trifluoromethyl)-2-pyridyl]methyl] quinoline-6-carboxamide]
310 | 2.69 |  | Cc1cc2cc(C(=O)N(Cc3cccc(-n4cncn4)c3)Cc3ccc(C(F)(F)F)cn3)ccc2nc1N [Example 649, 2-amino-3-methyl-N-[[3-(1,2,4-triazol-1-yl)phenyl]methyl]-N-[[5-(trifluoromethyl)-2-pyridyl]methyl] quinoline-6-carboxamide]
370 | 2.21 |  | Cc1cc2cc(C(=O)N(Cc3cccc(-c4ncc[nH]4)c3)Cc3ccc(C(F)(F)F)cn3)ccc2nc1N [Example 650, 2-amino-N-[ [3-(1 H-imidazol-2-yl)phenyl]methyl] -3-methyl-N-[ [5-(trifluoromethyl)-2-pyridyl]methyl] quinoline-6-carboxamide]
310 | 3 to 9 |  | Cc1cc2cc(C(=O)N(Cc3cccc(-n4ccnn4)c3)Cc3ccc(C(F)(F)F)cn3)ccc2nc1N [Example 651, 2-amino-3-methyl-N-[[3-(triazol-1-yl)phenyl]methyl] -N-[ [5-(trifluoromethyl)-2-pyridyl]methyl] quinoline-6-carboxamide]
160 | 3 to 7 |  | Cc1cc2cc(C(=O)N(Cc3ccc(C(F)(F)F)cn3)Cc3cccnc3-n3cncn3)ccc2nc1N [Example 652, 2-amino-3-methyl-N-[[2-(1,2,4-triazol-1-yl)-3-pyridyl]methyl]-N-[[5-(trifluoromethyl)-2-pyridyl]methyl] quinoline-6-carboxamide]
280 | 2.79 |  | Cc1cc2cc(C(=O)N(Cc3ccc(C(F)(F)F)cn3)Cc3ccccc3-n3ccnc3)ccc2nc1N [Example 653, 2-amino-N-[(2-imidazol-1-ylphenyl)methyl]-3-methyl-N-[[5-(trifluoromethyl)-2-pyridyl]methyl] quinoline-6-carboxamide]
